{"source": "patent US12275685B2", "about": "“Oligo-benzamide analogs and their use in cancer treatment” (Board of Regents, The University of Texas System, priority 2018, dated 2025)", "key": {"[1]": {"test_system": "triple-negative breast cancer cells (TNBC)", "assay": "Growth inhibition of TNBC cells", "assay_type": "cell-based", "text": "(§1) FIGS. 10A & 10B show effects of TK208 against cancer cells.\nTNBC is difficult to be treated and currently there are no good drugs available in the market.\n(§2) In addition, another tris-benzmaide compound TK208 was synthesized and tested against breast cancer and ovarian cancer cell lines (FIGS. 10-15). […] These compounds (e.g., TK41, TK208, TK308 (FIG. 21), TK309 (FIG. 22), TK314, TK315) are extremely potent compounds that inhibit tumor growth and kill breast and ovarian cancer cells and as such, they are superb therapeutic candidates for such diseases."}, "ovarian cancer cells": {"test_system": "ovarian cancer cells", "assay": "Growth inhibition of ovarian cancer cells", "assay_type": "cell-based", "text": "as §1, §2"}, "OCa cells [2]": {"test_system": "OCa cells", "assay": "ER stress (ERS)/UPR induction in OCa cells, RT-PCR and western", "assay_type": "cell-based", "experimental": "FIG. 40: Time course of induction of sXBP1 and CHOP mRNA in 4 OCa cell lines—ES2, SKOV3, OVCAR3 and OVCAR4 by ERX-208. Following treatment of OCa cell lines with 100 nM ERX-208, cells were harvested at various time points and lysates subjected to RT-PCR for both CHOP and sXBP1.\nFIG. 41: OCa cells were treated with ERX-208 for 16 h and the status of UPR proteins were determined using western blotting.\n(§3) ERX-208. […] Functionally, ERX-208 causes growth inhibition of OCa cells, as noted by MTT assays using five established OCa cells (ES2, SKOV3, A2780, TOV21G, TOV112D) and five primary OCa cells derived from HGSOC patient ascites (AS21, AS23, AS25, AS28, AS29) (FIGS. 42B-C). […] The inventor noted an IC50 of ˜50-100 nM for ERX-208 both for inducing ERS and in reducing the growth of OCa cells."}, "OCa cells [3]": {"test_system": "OCa cells", "assay": "MTT assay in OCa cells", "assay_type": "cell-based", "experimental": "(§4) FIGS. 12A-12D show the effect of TK208 against ovarian cancer cell lines ES2 (FIGS. 12A & 12B) and SKOV3 (FIGS. 12C & 12D).\n(§5) FIGS. 42A-D: OCa cells were treated with ERX-11 (FIG. 42A) or ERX-208 (FIG. 42B). Primary OCa cells derived from ascites were treated with ERX-208 for 72 h (FIG. 42C) and cell viability by MTT assays. (FIG. 42D) Effect of ERX-208 on viability of IOSE cells was measured using MTT assays and TOV21G was used as +ve control.\nas §3"}, "[4]": {"test_system": "normal ovarian surface epithelial cells (IOSE)", "assay": "MTT assay in IOSE cells", "assay_type": "cell-based", "experimental": "as §5, §3"}, "[5]": {"test_system": "ES2 and SKOV3 ovarian cancer cells", "assay": "Colony formation assay", "assay_type": "cell-based", "experimental": "FIG. 43: ES2 and SKOV3 cells were treated with ERX-208 and its effect on cell survival was measured using colony formation assays. ****p<0.0001.\nas §3"}, "[6]": {"test_system": "ES2 and SKOV3 ovarian cancer cells", "assay": "Matrigel invasion chamber assay", "assay_type": "cell-based", "experimental": "FIG. 44: ES2 and SKOV3 cells were treated with ERX-208 and its effect on invasion was measured using Matrigel invasion chamber assays. ****p<0.0001.\nas §3"}, "OCa cells [7]": {"test_system": "OCa cells", "assay": "Caspase-Glo 3/7 apoptosis assay", "assay_type": "cell-based", "experimental": "as §4\nFIG. 45: ERX-208 effect on apoptosis of OCa cells was measured using Caspase-Glo® 3/7 Assays. ****p<0.0001.\nas §3"}, "[8]": {"test_system": "ES2 and SKOV3 ovarian cancer cells", "assay": "Cell cycle arrest", "assay_type": "cell-based", "details": "S phase"}, "ES2 CDX tumors": {"test_system": "ES2 CDX tumors", "assay": "ES2 CDX tumors", "assay_type": "in vivo, nude mice", "details": "15 days", "experimental": "FIG. 47: ES2/GFP/LUC cells were injected i.p. and tumors established. Mice (n=5) were treated with vehicle or ERX-208 (10 mg/kg/day/i.p). Tumor volume, tumor weight, number of tumor nodules are shown. **p<0.01,****p<0.0001.\n(§6) ERX-208 suppressed growth of ES2 CDX tumors. ES2 cells stably labelled with GFP/LUC reporter (2×10^5) were injected i.p. into nude mice. Following establishment of tumors, mice (n=5/group) were randomized and treated for 5 days/week with either 10 mg/kg/ip of ERX-208 or vehicle. […] ERX-208 is effective in reducing growth of HGSOC PDX tumors. Following establishment of PDX tumors, NSG mice (n=6/group) were randomized and treated for 5 days/week with either 10 mg/kg/ip of ERX-208 or vehicle."}, "HGSOC PDX tumors": {"test_system": "HGSOC PDX tumors", "assay": "HGSOC PDX tumors", "assay_type": "in vivo, NSG mice", "details": "21 days", "experimental": "FIGS. 48A-F: OCa PDX (n=6) tumors were established in the flanks of NSG mice. When the tumors reached 200 mm^3, treatment with vehicle or 10 mg/kg/day/i.p. ERX-208 was initiated. (FIG. 48A) Tumor volume, (FIG. 48B) tumor weight, (FIG. 48C) tumors picture, and\n(FIG. 48D) body weight is shown. (FIGS. 48E-F) IHC analysis of GRP 78 as a marker of ER stress *p<0.05; **p<0.01, ****p<0.0001.\nas §6"}, "[9]": {"test_system": "carboplatin resistant OCa cells", "assay": "Chemotherapy resistant OCa cells, MTT and apoptosis assay", "assay_type": "cell-based", "experimental": "(§7) FIGS. 49A-F: (FIGS. 49A-B) Effect of ERX-208 on chemotherapy resistant OCa cells was measured by MTT and apoptosis assay. (FIGS. 49C-F) Platinum-resistant PDX tumors were treated with vehicle or ERX-208 (10 mg/kg/day/i.p). Tumor volume (FIG. 49C), weights (FIG. 49D) tumors picture (FIG. 49E), bodyweights (FIG. 49F) are shown. ** P<0.01, ***p<0.001 ****p<0.0001.\n(§8) ERX-208 is effective in reducing growth of chemotherapy resistant OCa. OCa initially responds to chemotherapy; however, majority will develop chemotherapy resistance. […] The inventors conducted a proof of principle study using a therapy resistant HGSOC PDX model received from the UTHealth OBGYN PDX core. ERX-208 treatment resulted ˜60% reduction in tumor volume (FIGS. 49C-F)."}, "[10]": {"test_system": "therapy resistant HGSOC PDX", "assay": "Therapy resistant HGSOC PDX model", "assay_type": "in vivo, mice", "details": "10 mg/kg/day/i.p", "experimental": "as §7, §8"}, "ovarian tumor": {"test_system": "ovarian tumor", "assay": "Ovarian xenograft and PDX models of TK208", "assay_type": "in vivo, mouse", "experimental": "FIGS. 33A-H. FIGS. 33A-D show ovarian cancer xenografts (ES2) treated with vehicle or TK208 (ERX-208). Tumor volume (FIG. 33A), body weight (FIG. 33B) distribution of tumor weights at necropsy (FIG. 33C) and nodules (FIG. 33D) were graphed. FIGS. 33E-H show ovarian PDX tumors were treated with vehicle or TK208 (ERX-208). Tumor volume (FIG. 33E), distribution of tumor weights at necropsy (FIG. 33F) and tumor images (FIG. 33G) and body weight (FIG. 33H) were graphed.\nThe inventors have tested the in vivo activity of TK208 (ERX-208) using both ovarian xenograft and PDX models."}}, "note": "Read-outs that look alike come from different tables or passages of the source."}
{"smiles": "CC(C)COc1cc(C(=O)Nc2ccc(C(=O)N[C@H]3CC[C@H](C(=O)Nc4cnc5ccccc5c4)CC3)cc2OCC(C)C)ccc1NC(=O)c1ccc([N+](=O)[O-])c(OCCO)c1", "note": "[TK208]", "values": [{"measurement": "IC50", "setting": "[1]", "result": "10 to 100", "unit": "nM"}, {"measurement": "IC50", "setting": "ovarian cancer cells", "result": "10 to 100", "unit": "nM"}, {"measurement": "induction of CHOP mRNA", "setting": "OCa cells [2]; 100 nM, within 24 h", "result": "> 15", "unit": "fold"}, {"measurement": "induction of sXBP1 mRNA", "setting": "OCa cells [2]; 100 nM, within 24 h", "result": "> 10", "unit": "fold"}, {"measurement": "IC50", "setting": "OCa cells [2]; OCa cells, read-out: IC50 for inducing ERS", "result": "50 to 100", "unit": "nM"}, {"measurement": "induction of UPR components at the protein level", "setting": "OCa cells [2]; multiple OCa cell lines", "result": "induce classic UPR components peIF2a, CHOP and LC3B"}, {"measurement": "activity against OCa cells / cell viability", "setting": "OCa cells [3]", "result": "reduces cell viability"}, {"measurement": "IC50", "setting": "OCa cells [3]; read-out: IC50 in reducing the growth of OCa cells", "result": "50 to 100", "unit": "nM"}, {"measurement": "activity in IOSE", "setting": "[4]", "result": "limited activity"}, {"measurement": "colony formation", "setting": "[5]", "result": "reduces colony formation"}, {"measurement": "colony formation", "setting": "[5]; listed as ERX-208", "result": "reduced colony formation"}, {"measurement": "invasion", "setting": "[6]", "result": "reduces invasion"}, {"measurement": "invasion", "setting": "[6]; listed as ERX-208", "result": "reduced"}, {"measurement": "apoptosis", "setting": "OCa cells [7]", "result": "promotes apoptosis"}, {"measurement": "growth arrest", "setting": "[8]", "result": "promotes growth arrest"}, {"measurement": "reduction of tumor volume", "setting": "ES2 CDX tumors; 10 mg/kg/ip 5 days/week, Xenogen-IVIS", "result": "~60", "unit": "%"}, {"measurement": "body weight", "setting": "ES2 CDX tumors; 10 mg/kg/ip", "result": "no significant change in body weight"}, {"measurement": "reduction in tumor nodules", "setting": "ES2 CDX tumors; 10 mg/kg/ip", "result": "~50", "unit": "%"}, {"measurement": "reduction in tumor weight", "setting": "ES2 CDX tumors; 10 mg/kg/ip", "result": "~50", "unit": "%"}, {"measurement": "reduction of tumor volume", "setting": "HGSOC PDX tumors; 10 mg/kg/ip 5 days/week", "result": "~68", "unit": "%"}, {"measurement": "body weight", "setting": "HGSOC PDX tumors; 10 mg/kg/ip", "result": "no significant changes in body weight"}, {"measurement": "reduction in tumor weight", "setting": "HGSOC PDX tumors; 10 mg/kg/ip", "result": 60, "unit": "%"}, {"measurement": "apoptosis of carboplatin resistant OCa cells", "setting": "[9]", "result": "promoted apoptosis"}, {"measurement": "viability of carboplatin resistant OCa cells", "setting": "[9]", "result": "significantly reduced viability"}, {"measurement": "reduction in tumor volume", "setting": "[10]", "result": "~60", "unit": "%"}, {"measurement": "mouse body weight", "setting": "ovarian tumor; mouse, in vivo", "result": "no effect on mouse body weight"}, {"measurement": "reduction of ovarian tumor volume", "setting": "ovarian tumor; xenograft and PDX models", "result": "good efficacy"}]}
